Organism: Rattus norvegicus
Assay: Open TG-GATES - Regimen: Single
Format: toxicity, organism-based, Sprague-Dawley
Parameters: regimen Single, gender Male, age 6 weeks
Conditions: in vivo, po, route gavage; for Bas / Eos / Ht / Lym / MCH / Mono / Neu / RBC / Ret: tissue Blood; for KIDNEY_L / KIDNEY_R / KIDNEY_TOTAL: tissue Kidney; for ALP / ALT / AST / CRE / DBIL / IP / K / LDH / Na / PL / RALB / TBIL / TC / TG / TP / gamma-GTP / Ca: tissue Plasma; for LIVER: tissue Liver
[1] = 0 mg/kg, 3 h, dose level Control
[2] = 0 mg/kg, 6 h, dose level Control
[3] = 0 mg/kg, 9 h, dose level Control
[4] = 0 mg/kg, 24 h, dose level Control
[5] = 200 mg/kg, 24 h, dose level Low

COc1cc2ncnc(Nc3ccc(F)c(Cl)c3)c2cc1OCCCN1CCOCC1 [GEFITINIB]
TERMINAL_BW [1]: 216 g
Bas [1]: 0%
Eos [1]: 0.8%
Ht [1]: 39.6%
Lym [1]: 74.2%
MCH [1]: 21.5 pg
Mono [1]: 2.6%
Neu [1]: 21.8%
RBC [1]: 610.2 x10_4/ul
Ret [1]: 9.3%
KIDNEY_L [1]: 0.9 g
KIDNEY_R [1]: 0.9 g
KIDNEY_TOTAL [1]: 1.8 g
ALP [1]: 1581.8 IU/L
ALT [1]: 42.2 IU/L
AST [1]: 73.2 IU/L
CRE [1]: 0.2 mg/dL
DBIL [1]: 0 mg/dL
IP [1]: 8.2 mg/dL
K [1]: 4.1 meq/L
LDH [1]: 183.2 IU/L
Na [1]: 143.1 meq/L
PL [1]: 148.6 mg/dL
RALB [1]: 3.9 g/dL
TBIL [1]: 0.02 mg/dL
TC [1]: 85.4 mg/dL
TG [1]: 64.2 mg/dL
TP [1]: 5.5 g/dL
gamma-GTP [1]: 1.1 IU/L
TERMINAL_BW [2]: 212.6 g
Bas [2]: 0%
Eos [2]: 0.8%
Ht [2]: 40.1%
Lym [2]: 83.6%
MCH [2]: 21.4 pg
Mono [2]: 2.4%
Neu [2]: 12.8%
RBC [2]: 623.6 x10_4/ul
Ret [2]: 9.7%
KIDNEY_L [2]: 0.9 g
KIDNEY_R [2]: 1 g
KIDNEY_TOTAL [2]: 1.9 g
LIVER [2]: 9.6 g
ALP [2]: 1643.4 IU/L
ALT [2]: 41.2 IU/L
AST [2]: 71 IU/L
CRE [2]: 0.1 mg/dL
Ca [2]: 10.6 mg/dL
DBIL [2]: 0.002 mg/dL
IP [2]: 9.6 mg/dL
K [2]: 4.2 meq/L
LDH [2]: 200.6 IU/L
Na [2]: 142.5 meq/L
PL [2]: 158.8 mg/dL
RALB [2]: 3.9 g/dL
TBIL [2]: 0.018 mg/dL
TC [2]: 90.8 mg/dL
TG [2]: 78.2 mg/dL
TP [2]: 5.4 g/dL
gamma-GTP [2]: 1 IU/L
TERMINAL_BW [3]: 210 g
Bas [3]: 0%
Eos [3]: 1%
Ht [3]: 38.5%
Lym [3]: 77.6%
MCH [3]: 21.3 pg
Mono [3]: 3.4%
Neu [3]: 17.6%
RBC [3]: 601.2 x10_4/ul
Ret [3]: 9.4%
KIDNEY_L [3]: 1 g
KIDNEY_R [3]: 0.9 g
KIDNEY_TOTAL [3]: 1.9 g
LIVER [3]: 9 g
ALP [3]: 1562.4 IU/L
ALT [3]: 35.2 IU/L
AST [3]: 67.2 IU/L
CRE [3]: 0.1 mg/dL
DBIL [3]: 0.004 mg/dL
IP [3]: 10 mg/dL
K [3]: 4.2 meq/L
LDH [3]: 169 IU/L
Na [3]: 143.4 meq/L
PL [3]: 139.6 mg/dL
RALB [3]: 3.9 g/dL
TBIL [3]: 0.022 mg/dL
TC [3]: 81.6 mg/dL
TG [3]: 67.3 mg/dL
TP [3]: 5.4 g/dL
gamma-GTP [3]: 1 IU/L
TERMINAL_BW [4]: 223.4 g
Bas [4]: 0%
Eos [4]: 1%
Ht [4]: 39.9%
Lym [4]: 78.5%
MCH [4]: 20.8 pg
Mono [4]: 3.5%
Neu [4]: 16%
RBC [4]: 619.8 x10_4/ul
Ret [4]: 8.2%
KIDNEY_L [4]: 1 g
KIDNEY_R [4]: 1 g
KIDNEY_TOTAL [4]: 1.9 g
LIVER [4]: 10.6 g
ALT [4]: 44.5 IU/L
AST [4]: 75.8 IU/L
CRE [4]: 0.2 mg/dL
Ca [4]: 10.8 mg/dL
DBIL [4]: 0 mg/dL
IP [4]: 7.4 mg/dL
K [4]: 4.4 meq/L
LDH [4]: 145.5 IU/L
Na [4]: 142.1 meq/L
PL [4]: 149.5 mg/dL
RALB [4]: 4.2 g/dL
TBIL [4]: 0.01 mg/dL
TC [4]: 79 mg/dL
TG [4]: 122.7 mg/dL
TP [4]: 5.7 g/dL
gamma-GTP [4]: 1.3 IU/L
TERMINAL_BW (200 mg/kg, 3 h, dose level Low): 214.5 g
Bas (200 mg/kg, 3 h, dose level Low): 0%
Eos (200 mg/kg, 3 h, dose level Low): 0.8%
Ht (200 mg/kg, 3 h, dose level Low): 36.1%
Lym (200 mg/kg, 3 h, dose level Low): 74.4%
MCH (200 mg/kg, 3 h, dose level Low): 20.9 pg
Mono (200 mg/kg, 3 h, dose level Low): 3%
Neu (200 mg/kg, 3 h, dose level Low): 21.4%
RBC (200 mg/kg, 3 h, dose level Low): 577.2 x10_4/ul
Ret (200 mg/kg, 3 h, dose level Low): 8.9%
KIDNEY_L (200 mg/kg, 3 h, dose level Low): 1 g
KIDNEY_R (200 mg/kg, 3 h, dose level Low): 1 g
KIDNEY_TOTAL (200 mg/kg, 3 h, dose level Low): 2 g
LIVER (200 mg/kg, 3 h, dose level Low): 9.2 g
ALP (200 mg/kg, 3 h, dose level Low): 1618.4 IU/L
ALT (200 mg/kg, 3 h, dose level Low): 52 IU/L
AST (200 mg/kg, 3 h, dose level Low): 82.8 IU/L
CRE (200 mg/kg, 3 h, dose level Low): 0.1 mg/dL
Ca (200 mg/kg, 3 h, dose level Low): 9.9 mg/dL
DBIL (200 mg/kg, 3 h, dose level Low): 0.016 mg/dL
IP (200 mg/kg, 3 h, dose level Low): 9.2 mg/dL
K (200 mg/kg, 3 h, dose level Low): 4.1 meq/L
LDH (200 mg/kg, 3 h, dose level Low): 220.4 IU/L
Na (200 mg/kg, 3 h, dose level Low): 141.6 meq/L
PL (200 mg/kg, 3 h, dose level Low): 147.4 mg/dL
RALB (200 mg/kg, 3 h, dose level Low): 3.8 g/dL
TBIL (200 mg/kg, 3 h, dose level Low): 0.066 mg/dL
TC (200 mg/kg, 3 h, dose level Low): 97 mg/dL
TG (200 mg/kg, 3 h, dose level Low): 39.9 mg/dL
TP (200 mg/kg, 3 h, dose level Low): 5.3 g/dL
gamma-GTP (200 mg/kg, 3 h, dose level Low): 0.9 IU/L
TERMINAL_BW (200 mg/kg, 6 h, dose level Low): 210.7 g
Bas (200 mg/kg, 6 h, dose level Low): 0%
Eos (200 mg/kg, 6 h, dose level Low): 0.6%
Ht (200 mg/kg, 6 h, dose level Low): 37.3%
Lym (200 mg/kg, 6 h, dose level Low): 79.4%
MCH (200 mg/kg, 6 h, dose level Low): 21.5 pg
Mono (200 mg/kg, 6 h, dose level Low): 3.6%
Neu (200 mg/kg, 6 h, dose level Low): 15.8%
RBC (200 mg/kg, 6 h, dose level Low): 579.2 x10_4/ul
Ret (200 mg/kg, 6 h, dose level Low): 9.1%
KIDNEY_L (200 mg/kg, 6 h, dose level Low): 0.9 g
KIDNEY_R (200 mg/kg, 6 h, dose level Low): 0.9 g
KIDNEY_TOTAL (200 mg/kg, 6 h, dose level Low): 1.9 g
LIVER (200 mg/kg, 6 h, dose level Low): 8.9 g
ALP (200 mg/kg, 6 h, dose level Low): 1407.4 IU/L
ALT (200 mg/kg, 6 h, dose level Low): 53.8 IU/L
AST (200 mg/kg, 6 h, dose level Low): 78.6 IU/L
CRE (200 mg/kg, 6 h, dose level Low): 0.2 mg/dL
Ca (200 mg/kg, 6 h, dose level Low): 9.9 mg/dL
DBIL (200 mg/kg, 6 h, dose level Low): 0.018 mg/dL
IP (200 mg/kg, 6 h, dose level Low): 9.6 mg/dL
K (200 mg/kg, 6 h, dose level Low): 4 meq/L
LDH (200 mg/kg, 6 h, dose level Low): 142.6 IU/L
Na (200 mg/kg, 6 h, dose level Low): 141.5 meq/L
PL (200 mg/kg, 6 h, dose level Low): 142.8 mg/dL
RALB (200 mg/kg, 6 h, dose level Low): 3.9 g/dL
TBIL (200 mg/kg, 6 h, dose level Low): 0.076 mg/dL
TC (200 mg/kg, 6 h, dose level Low): 93 mg/dL
TG (200 mg/kg, 6 h, dose level Low): 31.4 mg/dL
TP (200 mg/kg, 6 h, dose level Low): 5.4 g/dL
gamma-GTP (200 mg/kg, 6 h, dose level Low): 0.9 IU/L
TERMINAL_BW (200 mg/kg, 9 h, dose level Low): 210 g
Bas (200 mg/kg, 9 h, dose level Low): 0%
Eos (200 mg/kg, 9 h, dose level Low): 0.6%
Ht (200 mg/kg, 9 h, dose level Low): 38.5%
Lym (200 mg/kg, 9 h, dose level Low): 78.4%
MCH (200 mg/kg, 9 h, dose level Low): 20.9 pg
Mono (200 mg/kg, 9 h, dose level Low): 3.2%
Neu (200 mg/kg, 9 h, dose level Low): 17.2%
RBC (200 mg/kg, 9 h, dose level Low): 611 x10_4/ul
Ret (200 mg/kg, 9 h, dose level Low): 8.8%
KIDNEY_L (200 mg/kg, 9 h, dose level Low): 0.9 g
KIDNEY_R (200 mg/kg, 9 h, dose level Low): 0.9 g
KIDNEY_TOTAL (200 mg/kg, 9 h, dose level Low): 1.8 g
LIVER (200 mg/kg, 9 h, dose level Low): 8.6 g
ALP (200 mg/kg, 9 h, dose level Low): 1488 IU/L
ALT (200 mg/kg, 9 h, dose level Low): 48.2 IU/L
AST (200 mg/kg, 9 h, dose level Low): 78.4 IU/L
CRE (200 mg/kg, 9 h, dose level Low): 0.2 mg/dL
Ca (200 mg/kg, 9 h, dose level Low): 9.9 mg/dL
DBIL (200 mg/kg, 9 h, dose level Low): 0.01 mg/dL
IP (200 mg/kg, 9 h, dose level Low): 9.5 mg/dL
K (200 mg/kg, 9 h, dose level Low): 4.3 meq/L
Na (200 mg/kg, 9 h, dose level Low): 143.6 meq/L
PL (200 mg/kg, 9 h, dose level Low): 146 mg/dL
RALB (200 mg/kg, 9 h, dose level Low): 3.8 g/dL
TBIL (200 mg/kg, 9 h, dose level Low): 0.048 mg/dL
TC (200 mg/kg, 9 h, dose level Low): 93.6 mg/dL
TG (200 mg/kg, 9 h, dose level Low): 39 mg/dL
TP (200 mg/kg, 9 h, dose level Low): 5.4 g/dL
gamma-GTP (200 mg/kg, 9 h, dose level Low): 1.1 IU/L
TERMINAL_BW [5]: 215.5 g
Bas [5]: 0%
Eos [5]: 0.8%
Ht [5]: 40.7%
Lym [5]: 66%
MCH [5]: 20.6 pg
Mono [5]: 4%
Neu [5]: 28.6%
RBC [5]: 635 x10_4/ul
Ret [5]: 8.2%
KIDNEY_L [5]: 1 g
KIDNEY_R [5]: 1 g
KIDNEY_TOTAL [5]: 2 g
LIVER [5]: 9.5 g
ALP [5]: 1548.6 IU/L
ALT [5]: 39.6 IU/L
AST [5]: 72.8 IU/L
CRE [5]: 0.2 mg/dL
Ca [5]: 10.7 mg/dL
DBIL [5]: 0.004 mg/dL
IP [5]: 8.6 mg/dL
K [5]: 4.4 meq/L
LDH [5]: 215.2 IU/L
Na [5]: 142.9 meq/L
PL [5]: 166 mg/dL
RALB [5]: 4 g/dL
TBIL [5]: 0.022 mg/dL
TG [5]: 69.4 mg/dL
TP [5]: 5.5 g/dL
gamma-GTP [5]: 1.2 IU/L
TERMINAL_BW (600 mg/kg, 3 h, dose level Middle): 215 g

Reference: ChEMBL document CHEMBL3885861, “Open TG-GATES”
